In article PMC8452301 (CPT: Pharmacometrics & Systems Pharmacology, 2021):
Where two headings read alike, the source gives them in different places.

Columns and labels:
[1] = format: in vivo, human; details: observed
[2] = Physicochemical input parameters; details: high solubility–high permeability
[3] = cited from earlier work
[4] = cited from earlier work; remark: listed apart in the source
[5] = cited from earlier work; remark: listed apart in the source
[6] = 4-mg single dose, geometric mean, observed N=7
[7] = 4-mg single dose, mean, observed N=7
[8] = 4-mg single dose, median, observed N=7
[9] = 4-mg, q.d. dosing, geometric mean, observed N=5
[10] = 4-mg, q.d. dosing, mean, observed N=5
[11] = 9-mg q.d. dosing, geometric mean, observed N=6
[12] = 9-mg q.d. dosing, mean, observed N=6
[13] = 9-mg q.d. dosing, median, observed N=6
[14] = 9-mg single dose, geometric mean, observed N=9
[15] = 9-mg single dose, mean, observed N=9
[16] = 9-mg single dose, median, observed N=9
[17] = 4-mg single dose, no inhibitor, Cohort A n=17, mean
[18] = 4-mg with 200-mg q.d. itraconazole, Cohort C, geometric mean
[19] = 4-mg with 200-mg q.d. itraconazole, Cohort C, mean
[20] = 4-mg with 400-mg q.d. fluconazole, Cohort B, geometric mean
[21] = 4-mg with 400-mg q.d. fluconazole, Cohort B, mean

COc1cc(OC)cc(N(CCNC(C)C)c2ccc3ncc(-c4cnn(C)c4)nc3c2)c1 [erdafitinib]
difference in total exposure, patients with cancer versus healthy subjects [1]: ~ 1.4 fold
Biopharmaceutics Classification System class [2]: Class 1
AUC0–72 [3, 6]: 6022 ng·h/mL
Cmax [3, 6]: 163 ng/mL
AUC0–72 [3, 7]: 6743 ng·h/mL
Cmax [3, 7]: 182 ng/mL
AUC0–72 [3, 8]: 6360 ng·h/mL
Cmax [3, 8]: 173 ng/mL
AUCtau [3, 9]: 12,064 ng·h/ml
Cmax [3, 9]: 630 ng/mL
AUCtau [3, 10]: 13,516 ng·h/ml
Cmax [3, 10]: 675 ng/mL
Cmax ([3]; 4-mg, q.d. dosing, median, observed N=5): 569 ng/mL
AUCtau [3, 11]: 36,608 ng·h/ml
Cmax [3, 11]: 1911 ng/mL
AUCtau [3, 12]: 39,587 ng·h/ml
Cmax [3, 12]: 2018 ng/mL
AUCtau [3, 13]: 30,594 ng·h/ml
Cmax [3, 13]: 1765 ng/mL
AUC0–72 [3, 14]: 15,091 ng·h/ml
Cmax [3, 14]: 390 ng/mL
AUC0–72 [3, 15]: 17,564 ng·h/ml
Cmax [3, 15]: 431 ng/mL
AUC0–72 [3, 16]: 16,053 ng·h/ml
Cmax [3, 16]: 389 ng/mL
unchanged drug recovered in feces ([4]; over ~ 16 days): 17%
unchanged drug recovered in feces ([4]; within the first 3 days): < 5 % of the dose
AUCinf ([5]; 4-mg single dose, no inhibitor, Cohort A n=17, geometric mean): 8777 ng·h/mL
AUCinf [5, 17]: 9145 ng·h/mL
Cmax [5, 17]: 138 ng/mL
AUCinf [5, 18]: 11,785 ng·h/ml
Cmax [5, 18]: 140 ng/mL
AUCinf [5, 19]: 12,228 ng·h/ml
Cmax [5, 19]: 145 ng/mL
AUCinf [5, 20]: 13,060 ng·h/ml
Cmax [5, 20]: 162 ng/mL
AUCinf [5, 21]: 14,233 ng·h/ml
Cmax [5, 21]: 177 ng/mL
